Data from paper PMC9039011, “Novel β-Cyclodextrin-Based Heptavalent Glycyrrhetinic Acid Conjugates: Synthesis, Characterization, and Anti-Influenza Activity” (Frontiers in Chemistry, 2022).

Legend:
[1] = Cytotoxicity assay (CellTiter-Glo cell viability); settings: dog
[2] = system: MDCK cells; experiment: Cytotoxicity assay (CellTiter-Glo cell viability); settings: dose-dependent, 10 and 25 μM
[3] = target: HA; set-up: method as in Sauter et al., 1989; settings: monovalent interaction; ref Sauter et al., 1989; read-out: dissociation constant (KD); cited from earlier work

CC1(C)[C@@H](O)CC[C@]2(C)[C@H]3C(=O)C=C4[C@@H]5C[C@@](C)(C(=O)O)CC[C@]5(C)CC[C@@]4(C)[C@]3(C)CC[C@@H]12 [Compound 2, glycyrrhetinic acid]
CC50 at 48 h ([1]; MDCK cells): 85 ± 6.8 µM | viability at 48 h, 25 µM ([1]; MDCK cells (uninfected)): 82.8%

CC(=O)O[C@H]1C(=O)[C@@]2(C)[C@H]([C@H](OC(=O)c3ccccc3)[C@]3(O)C[C@H](OC(=O)[C@H](O)[C@@H](NC(=O)c4ccccc4)c4ccccc4)C(C)=C1C3(C)C)[C@]1(OC(C)=O)CO[C@@H]1C[C@@H]2O [PTX, paclitaxel]
viability of MDCK cells (words, positive control) [2]: decrease in the viability

CC(=O)N[C@H]1[C@H]([C@H](O)[C@H](O)CO)OC(O)(C(=O)O)C[C@@H]1O (stereo partly shown) [sialic acid]
Kd [3]: ~2 mM
